From patent US20080146633A1, “COMPOSITIONS FOR SKIN LIGHTENING AND TONING DOWN PIGMENT DISORDERS, COMPRISING CREATININE AND/OR CREATININE DERIVATIVES AS ACTIVE SUBSTANCES” (GOLDSCHMIDT GMBH, priority 2002, published 2008)

Tests used:
fungi tyrosinase = experiment: Tyrosinase inhibition (L-Dopa to dopachrome, absorption at 475 nm); assay type: biochemical; details: 15 min at room temperature
Description: The inhibition of fungi tyrosinase was determined as a function of different concentrations of creatinine (0.05 to 1.7% by volume) by reference to the enzymatic reaction of L-Dopa to dopachrome. The absorption maximum of the dopachrome is at a wavelength of 475 nm. The tyrosinase inhibition is calculated in accordance with the following equation:
Inhibition [%]={100−[(Esample*100)/Ereference]} (1)
each measurement was carried out in duplicate, with parallel mixtures. The variation of the method is ±10%,
25 mM acetate buffer (pH 4.9): dilute from 0.2 M acetate buffer (pH 4.9) (Sigma) Phosphate buffer (pH 7): Titrosol (Merck) 20 mM L-DOPA (in acetate buffer) Tyrosinase stock solution: 40 U/ml of phosphate buffer Stock solution of creatinine: 0.45 M in phosphate buffer
The DOPA solution and the tyrosinase stock solution were prepared only prior to the start of the experiment. The L-DOPA solutions should be stored in a dark place and in vessels which can be sealed tightly.
500 μL of DOPA stock solution 400 μL of creatinine solution or phosphate buffer (reference) 100 μL of tyrosinase stock solution Following the addition of the enzyme, the samples were thoroughly mixed using a “Reax Top” (Heidolph). Following an incubation period of 15 min at room temperature, the absorption at 475 nm was determined. The measurement was carried out using a “Helios Beta” spectrophotometer from Unicam.

[1] = test system: MelanoDerm in vitro skin model (melanocytes); experiment: In vitro skin model test (MelanoDerm), melanin determined quantitatively; assay type: cell-based; details: for Melanin: applied every 48 hours
Description: The skin-lightening effect was validated on an in vitro skin model, the MelanoDerm™ from MatTek. This model is very similar in structure and function to the natural skin and has the cell types relevant in the epidermis including the melanocytes, which are responsible for the synthesis of the main pigment melanin. Further information can be found, for example, in M. K. King et al. in Proceedings of Society of Cosmetic Chemists Annual Scientific Meeting and Technology Showcase 1998, 35-36. Creatinine, kojic acid dipalmitate as positive standard and water as negative control were applied every 48 hours over a period of 21 days to the in vitro skin model.
The melanin produced by the melanocytes was determined quantitatively on the 17th and 21st day.

SMILES	Tyrosinase inhibition (%) (fungi tyrosinase; creatinine 0.05 % by volume)	Tyrosinase inhibition (%) (fungi tyrosinase; creatinine 0.30 % by volume)	Tyrosinase inhibition (%) (fungi tyrosinase; creatinine 0.60 % by volume)	Tyrosinase inhibition (%) (fungi tyrosinase; creatinine 0.90 % by volume)	Tyrosinase inhibition (%) (fungi tyrosinase; creatinine 1.10 % by volume)	Tyrosinase inhibition (%) (fungi tyrosinase; creatinine 1.40 % by volume)	Tyrosinase inhibition (%) (fungi tyrosinase; creatinine 1.70 % by volume)	Melanin ([1]; Day 17)	Melanin ([1]; Day 21)	Effectiveness compared with kojic acid dipalmitate (positive standard) ([1]; upon prolonged application)
CN1CC(=O)NC1=N [Creatinine, 2-imino-N-methylhydantoin]	1.77%	9.97%	14.21%	20.75%	24.81%	28.15%	32.18%	94.5 µg	12.67 µg	twice as effective
CCCCCCCCCCCCCCCC(=O)OCc1cc(=O)c(OC(=O)CCCCCCCCCCCCCCC)co1 [Kojic dipalmitate, kojic acid dipalmitate, reference compound]								102.5 µg	82.67 µg	
